Key:
[1] = tested on: XG1LenRes cells; test: MTT assay, PBK inhibitor alone or combined with lenalidomide or bortezomib; type: cell-based, human; details: XG1LenRes (IMiD resistant cell line)
Method: (§1) FIGS. 11A and 11B show MM cell growth and drug response after depletion of PRR11 using CRISPR-Cas9 technology or inhibition of PBK in HMCLs. (A) The lentivirus harboring non-targeting control (NS) and two PRR11 CRISPR gRNAs (#1 and #2) expressing cassette were used to infect two MM cell lines (JJN3 and […]). After confirming depletion of PRR11 in HMCLs by western blot (bottom), an MTT assay was performed to evaluate cell proliferation and drug response to lenalidomide or bortezomib in both control virus-transduced cells and cells with PRR11 depletion. Depletion of PRR11 neither changed MM cell proliferation nor affected lenalidomide and bortezomib sensitivity. (B) JJN3 and XG1LenRes, IMiD resistant cell lines, were treated with a PBK specific inhibitor, HI-TOPK-032 alone (Calbiochem) or combined with either lenalidomide (Len) or bortezomib (Bor) to evaluate synergy by the MTT assay. Inhibition of PBK activity using Hi-TOPK-032, enhanced both lenalidomide and bortezomib sensitivity in JJN3 and XG1LenRes cells.
(§2) Analysis of NM cell proliferation and drug response after modulating PRR11 expression and PBK1 activity: PRR11 and PBK1 expression also was associated with survival and drug response in the CoMMpass dataset. Using CRISPR-Cas9 technology, MM cell proliferation and drug response were investigated after depletion of PRR11. Briefly, the lentivirus harboring non-targeting control and two PRR11 CRISPR gRNA expressing cassettes were prepared and used to infect MM cell lines using methods described elsewhere (Ran et al., Nat Protoc 8(11):2281-2308, 2013; and Zhu et al., Cancer Res 77(16):4317-4327, 2017). After confirming depletion of PRR11 in HMCLs by western blot, an MTT assay was performed to evaluate cell proliferation and drug response to lenalidomide or bortezomib in both control virus-transduced cells and cells with PRR11 depletion. For PBK, JJN3 and XG1LenRes (IMiD resistant cell lines) were treated with a PBK specific inhibitor (HI-TOPK-032; Calbiochem; San Diego, CA) either alone or in combination with either lenalidomide or bortezomib to evaluate their effects by MTT assay.

[2] = tested on: JJN3 cells; test: as above; type: cell-based, human; details: JJN3 (IMiD resistant cell line)
Method: as §1, §2

N#Cc1c2nc3ccccc3nc2n2ccc(NC(=O)c3cccs3)cc12 [Hi-TOPK-032]
enhanced: bortezomib sensitivity ([1]; combined with bortezomib) | lenalidomide sensitivity ([1]; combined with lenalidomide) | bortezomib sensitivity ([2]; combined with bortezomib) | lenalidomide sensitivity ([2]; combined with lenalidomide)

— US20240150843A1, “METHODS AND MATERIALS FOR IDENTIFYING MYELOMA STAGE AND DRUG SENSITIVITY AND TREATING MYELOMA” (Mayo Foundation for Medical Education and Research, priority 2021, published 2024)
